The values that follow come from patent publication US11401257B2, “Solid forms of 2-(4-chlorophenyl)-N-((2-(2,6-dioxopiperidin-3-yl)-1-oxoisoindolin-5-yl)methyl)-2,2-difluoroacetamide, and their pharmaceutical compositions and uses” (Celgene Corporation, priority 2016, dated 2022).

The structures appear in SMILES notation. ≈ marks a conversion by molar mass, not a printed value.

Assay type in all cases: physicochemical
Data set [1] can be described thus: physchem. To be noted: for solubility at 24 h: thermodynamic from solid. How it is done:
Solubility of Form C in selected aqueous and organic solvents was determined by mixing solid with solvents at room temperature. […]

Data set [2] in a line: Hygroscopicity by dynamic vapor sorption (DVS). The settings on record: for water uptake (DVS): relative humidity increased from about 0% to about 90% RH; for DVS water uptake: up to 90% RH. The procedure: Hygroscopicity was determined on a Surface Measurement Systems DVS. Typically a sample size of 5-20 mg was loaded into the DVS instrument sample pan and the sample was analyzed on a DVS automated sorption analyzer at room temperature. The relative humidity was increased from 0% to 90% RH at 10% RH step, then decreased in a similar manner to accomplish a full adsorption/desorption cycle.

Data set [3] can be described thus: Form conversion experiments (interconversion among solid forms). To be noted: anhydrates of Compound 1. The procedure: Further form conversion experiments were performed to determine interconversion among solid forms.
Data set [4] can be described thus: physchem. To be noted: water, thermodynamic from solid, Approximate Solubility. How it is done:
In order to select the screening solvents and to determine the concentration range to be used in the screen, a quantitative solubility assessment was performed on Form B and Form C of Compound 1.

What is called solubility is how much of the substance goes into solution per volume. A higher solubility goes with much dissolved substance. Consider `O=C1CCC(N2Cc3cc(CNC(=O)C(F)(F)c4ccc(Cl)cc4)ccc3C2=O)C(=O)N1` (centres unmarked) [Form C, 2-(4-chlorophenyl)-N-((2-(2,6-dioxopiperidin-3-yl)-1-oxoisoindolin-5-yl)methyl)-2,2-difluoroacetamide], for which the solubility in data set [1] (2 h) worked out at 843 µg/mL (≈ 1830 µM). The same molecule had a solubility at 24 h in data set [1] (pH 4, aqueous buffer) of 1 µg/mL (≈ 2.17 µM). In data set [1] (pH 6.8, aqueous buffer), the solubility at 24 h came to 1 µg/mL (≈ 2.17 µM). In data set [2], the “water uptake (DVS)” value was “about 0.6 % w/w” and the DVS water uptake is approximately 0.6 wt % water. In addition, in data set [3], the “thermodynamic stability among the crystal forms” value is on record as “most thermodynamically stable anhydrate”.

Regarding `O=C1CCC(N2Cc3cc(CNC(=O)C(F)(F)c4ccc(Cl)cc4)ccc3C2=O)C(=O)N1` (centres unmarked) [Form B, 2-(4-chlorophenyl)-N-((2-(2,6-dioxopiperidin-3-yl)-1-oxoisoindolin-5-yl)methyl)-2,2-difluoroacetamide], the solubility in data set [4] is less than 1000 µg/mL. In addition, in data set [2], the “water uptake (DVS)” value is “about 1.4 % w/w” and the DVS water uptake is given as approximately 1.4 wt % water.

`O=C1CCC(N2Cc3cc(CNC(=O)C(F)(F)c4ccc(Cl)cc4)ccc3C2=O)C(=O)N1` (centres unmarked) [Form A, 2-(4-chlorophenyl)-N-((2-(2,6-dioxopiperidin-3-yl)-1-oxoisoindolin-5-yl)methyl)-2,2-difluoroacetamide]: in data set [2], the “water uptake (DVS)” value was “about 1.2 % w/w” and the DVS water uptake is listed as approximately 1.2 wt % water.
